The text below walks through data of ChEMBL document CHEMBL5729744, “Granzyme B directed imaging and therapy” (2023).

By IC50 is commonly meant the concentration at which inhibition is half-maximal. A lower IC50 goes with greater potency.

The target in the test is Granzyme B (Homo sapiens, UniProt P10144). The test can be described thus: Biochemical Assay: Buffer pH7.4: Prepare 1 (M) KH2PO4 and 1 (M) K2HPO4. Titrate 1(M) K2HPO4 with 1 (M) KH2PO4 to obtain pH 7.40. Dilute this buffer 10 fold in Water (30 ml buffer+270 ml of water) to obtain 100 mM phosphate buffer. Adjust pH to 7.40±0.02 using 5(N) HCl or 5(N) NaOH. NADPH Regeneration System (NRS): Prepare a solution containing 13 mM NADP, 33 mM Glucose-6-phosphate, 33 mM MgCl2and 4 U/ml Glucose-6-phosphate dehydrogenase in buffer. Liver Microsome (LM) suspension: Thaw LM vial on ice, then mix 1.0 ml LM (20 mg/ml) with 19 ml buffer [final LM Conc: 1 mg/ml] LM+NRS suspension: Mix 5.0 ml NRS with 20 ml LM suspension [final LM Conc: 0.8 mg/ml] System suitability standard: a synthesized compound having Mol wt 686.2 used as System suitability standard. Dissolve this compound in ice-cold acetonitrile to obtain concentration of 0.1 μg/ml and store at 4° C. Compound Dilution: Compound Stock: 10 mM in DMSO Sub stock (100 μM): 4 μl of 10 mM Compound Stock+398 μl Acetonitrile. Working plate (2 μM): 10 μl of 100 μM Sub stock+490 μl buffer Assay Procedure Incubate all plastic materials including tips at 37° C. overnight. Incubate LM suspension and NRS at 37° C. for 15 min before use. Add 40 μl buffer to the wells of blank plate. Add 40 μl compound (from working plate) to 0, 5, 10, 20, 30 and 60 min plates. Initiate reaction by adding 40 μl of LM+NRS suspension in each plate. […]. A general note: Liver microsomes are vesicles of endoplasmic reticulum, rich in cytochrome P450 enzymes.
Chain of Granzyme B (P10144 whole entry): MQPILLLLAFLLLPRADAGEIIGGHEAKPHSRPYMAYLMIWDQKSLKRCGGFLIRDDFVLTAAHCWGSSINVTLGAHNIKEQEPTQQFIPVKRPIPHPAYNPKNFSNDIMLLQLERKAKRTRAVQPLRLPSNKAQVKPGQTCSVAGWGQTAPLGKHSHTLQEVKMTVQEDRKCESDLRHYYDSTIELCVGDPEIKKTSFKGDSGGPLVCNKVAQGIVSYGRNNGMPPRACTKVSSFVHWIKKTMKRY

Regarding `O=C(Cc1ccccc1)NCC(=O)N[C@H]1CCc2cccc3c2N(C1=O)[C@H](C(=O)NCc1c[nH]nn1)C3`, the IC50 was over 5 µM.
